Data: PubChem BioAssay AID248 (DTP/NCI, 2004)
“And” between values parts separate entries of the source, which are not always exact repeats. Equal values may be shown once. Inconclusive results and toxic doses are left out. Rule as the data show it: active = T/C of 150% or more; inactive = T/C below 125%.

System: L1210 leukemia ip in BDF1 mice, survival T/C
Experiment: NCI In Vivo Anticancer Drug Screen. Data for tumor model L1210 Leukemia (intraperitoneal) in B6D2F1 (BDF1) mice
Conditions: higher = longer survival
In short: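 Transplantable tumor model; survival measured in treated vs vehicle control mice. Value = treated/control.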

[1] = endpoint: mean survival time, dose: 75.0 mg/kg/injection, schedule: Q04DX003 (ip), vehicle: Klucel (hydroxypropylcellulose) (HPC)
[2] = endpoint: mean survival time, dose: 150.0 mg/kg/injection, schedule: Q04DX003 (ip), vehicle: Klucel (hydroxypropylcellulose) (HPC)
[3] = endpoint: mean survival time, dose: 300.0 mg/kg/injection, schedule: Q04DX003 (ip), vehicle: Klucel (hydroxypropylcellulose) (HPC)
[4] = endpoint: mean survival time, dose: 100.0 mg/kg/injection, schedule: Q01DX001 (ip), vehicle: saline
[5] = endpoint: mean survival time, dose: 200.0 mg/kg/injection, schedule: Q01DX001 (ip), vehicle: saline
[6] = endpoint: mean survival time, dose: 100.0 mg/kg/injection, schedule: Q04DX002 (ip), vehicle: saline with Tween-80
[7] = endpoint: mean survival time, dose: 200.0 mg/kg/injection, schedule: Q04DX002 (ip), vehicle: saline with Tween-80
[8] = endpoint: mean survival time, dose: 400.0 mg/kg/injection, schedule: Q04DX002 (ip), vehicle: saline with Tween-80
[9] = endpoint: mean survival time, dose: 100.0 mg/kg/injection, schedule: Q04DX002 (ip), vehicle: Klucel (hydroxypropylcellulose) (HPC)
[10] = endpoint: mean survival time, dose: 200.0 mg/kg/injection, schedule: Q04DX002 (ip), vehicle: Klucel (hydroxypropylcellulose) (HPC)
[11] = endpoint: mean survival time, dose: 400.0 mg/kg/injection, schedule: Q04DX002 (ip), vehicle: Klucel (hydroxypropylcellulose) (HPC)
[12] = endpoint: mean survival time, dose: 100.0 mg/kg/injection, schedule: Q04DX003 (ip), vehicle: saline
[13] = endpoint: mean survival time, dose: 200.0 mg/kg/injection, schedule: Q04DX003 (ip), vehicle: saline
[14] = endpoint: mean survival time, dose: 100.0 mg/kg/injection, schedule: Q01DX009 (ip), vehicle: Klucel (hydroxypropylcellulose) (HPC)
[15] = endpoint: mean survival time, dose: 100.0 mg/kg/injection, schedule: Q01DX009 (ip), vehicle: saline with Tween-80
[16] = endpoint: mean survival time, dose: 100.0 mg/kg/injection, schedule: Q04DX003 (ip), vehicle: saline with Tween-80
[17] = endpoint: mean survival time, dose: 200.0 mg/kg/injection, schedule: Q01DX009 (ip), vehicle: saline with Tween-80
[18] = endpoint: mean survival time, dose: 200.0 mg/kg/injection, schedule: Q04DX003 (ip), vehicle: saline with Tween-80
[19] = endpoint: mean survival time, dose: 400.0 mg/kg/injection, schedule: Q01DX009 (ip), vehicle: saline with Tween-80
[20] = endpoint: mean survival time, dose: 400.0 mg/kg/injection, schedule: Q04DX003 (ip), vehicle: saline with Tween-80

Measured: T/C

CCCC(=O)Nc1ncnc2c1ncn2C1OC2COP(=O)(O)OC2C1OC(=O)CCC (configuration not stated)
inactive: endpoint: mean survival time, dose: 12.5 mg/kg/injection, schedule: Q01DX009 (ip), vehicle: saline 105 % of control | endpoint: mean survival time, dose: 25.0 mg/kg/injection, schedule: Q01DX009 (ip), vehicle: saline 104 % of control | endpoint: mean survival time, dose: 50.0 mg/kg/injection, schedule: Q01DX009 (ip), vehicle: saline 102 % of control | endpoint: mean survival time, dose: 100.0 mg/kg/injection, schedule: Q01DX009 (ip), vehicle: saline 102 % of control | endpoint: mean survival time, dose: 200.0 mg/kg/injection, schedule: Q01DX009 (ip), vehicle: saline 100 % of control | endpoint: mean survival time, dose: 400.0 mg/kg/injection, schedule: Q01DX009 (ip), vehicle: saline 104 % of control | endpoint: median survival time, dose: 25.0 mg/kg/injection, schedule: Q01DX009 (ip), vehicle: saline 100 % of control | endpoint: median survival time, dose: 50.0 mg/kg/injection, schedule: Q01DX001 (ip), vehicle: saline 100 % of control | endpoint: median survival time, dose: 50.0 mg/kg/injection, schedule: Q01DX009 (ip), vehicle: saline 100 % of control | endpoint: median survival time, dose: 100.0 mg/kg/injection, schedule: Q01DX001 (ip), vehicle: saline 100 % of control | endpoint: median survival time, dose: 100.0 mg/kg/injection, schedule: Q01DX009 (ip), vehicle: saline 100 % of control | endpoint: median survival time, dose: 200.0 mg/kg/injection, schedule: Q01DX001 (ip), vehicle: saline 100 % of control | endpoint: median survival time, dose: 200.0 mg/kg/injection, schedule: Q01DX009 (ip), vehicle: saline 100 % of control | endpoint: median survival time, dose: 400.0 mg/kg/injection, schedule: Q01DX001 (ip), vehicle: saline 100 % of control | endpoint: median survival time, dose: 400.0 mg/kg/injection, schedule: Q01DX009 (ip), vehicle: saline 100 % of control

CN(CC(=O)c1ccc(-c2ccccc2)cc1)C(=O)c1ccccc1
inactive: [1] 96 % of control | [2] 89 % of control | [3] 89 % of control

CC(CCOC(=O)c1ccccc1)OC(=O)c1ccccc1 (configuration not stated)
inactive: [4] 92 % of control | [5] 121 % of control | endpoint: mean survival time, dose: 400.0 mg/kg/injection, schedule: Q01DX001 (ip), vehicle: saline 105 % of control

CN1CCN(P(=O)(c2ccccc2)N2CCN(C)CC2)CC1
inactive: [6] 98 % of control | [7] 98 % of control | [8] 98 % of control

CCOC(=O)C1(c2ccccc2)CCCNC1=O (configuration not stated)
inactive: endpoint: mean survival time, dose: 100.0 mg/kg/injection, schedule: Q04DX002 (ip), vehicle: saline 107 % of control | endpoint: mean survival time, dose: 200.0 mg/kg/injection, schedule: Q04DX002 (ip), vehicle: saline 89 % of control | endpoint: mean survival time, dose: 400.0 mg/kg/injection, schedule: Q04DX002 (ip), vehicle: saline 100 % of control

CCCNC(=O)Oc1ccc2ccccc2c1
inactive: endpoint: mean survival time, dose: 100.0 mg/kg/injection, schedule: Q01DX001 (ip), vehicle: other 103 % of control | endpoint: mean survival time, dose: 100.0 mg/kg/injection, schedule: Q01DX009 (ip), vehicle: other 93 % of control and 100 % of control | [9] 95 % of control | endpoint: mean survival time, dose: 100.0 mg/kg/injection, schedule: Q04DX002 (ip), vehicle: other 100 % of control and 101 % of control | endpoint: mean survival time, dose: 200.0 mg/kg/injection, schedule: Q01DX001 (ip), vehicle: other 94 % of control | endpoint: mean survival time, dose: 200.0 mg/kg/injection, schedule: Q01DX009 (ip), vehicle: other 94 % of control and 116 % of control | [10] 103 % of control | endpoint: mean survival time, dose: 200.0 mg/kg/injection, schedule: Q04DX002 (ip), vehicle: other 93 % of control and 95 % of control | endpoint: mean survival time, dose: 400.0 mg/kg/injection, schedule: Q01DX001 (ip), vehicle: other 101 % of control | endpoint: mean survival time, dose: 400.0 mg/kg/injection, schedule: Q01DX009 (ip), vehicle: other 93 % of control and 94 % of control | [11] 100 % of control | endpoint: mean survival time, dose: 400.0 mg/kg/injection, schedule: Q04DX002 (ip), vehicle: other 93 % of control and 96 % of control

CCCN(CCC)CC(C)O (configuration not stated)
inactive: [12] 93 % of control | [13] 97 % of control

[N-]=[N+]=C1C(=O)NN=C1c1ccccc1
inactive: endpoint: mean survival time, dose: 20.0 mg/kg/injection, schedule: Q04DX003 (ip), vehicle: Klucel (hydroxypropylcellulose) (HPC) 92 % of control | endpoint: mean survival time, dose: 25.0 mg/kg/injection, schedule: Q01DX009 (ip), vehicle: Klucel (hydroxypropylcellulose) (HPC) 98 % of control | endpoint: mean survival time, dose: 40.0 mg/kg/injection, schedule: Q04DX003 (ip), vehicle: Klucel (hydroxypropylcellulose) (HPC) 101 % of control | endpoint: mean survival time, dose: 50.0 mg/kg/injection, schedule: Q01DX009 (ip), vehicle: Klucel (hydroxypropylcellulose) (HPC) 96 % of control and 108 % of control | endpoint: mean survival time, dose: 80.0 mg/kg/injection, schedule: Q04DX003 (ip), vehicle: Klucel (hydroxypropylcellulose) (HPC) 97 % of control | [14] 101 % of control and 102 % of control | endpoint: mean survival time, dose: 100.0 mg/kg/injection, schedule: Q04DX003 (ip), vehicle: Klucel (hydroxypropylcellulose) (HPC) 98 % of control and 101 % of control and 106 % of control | endpoint: mean survival time, dose: 200.0 mg/kg/injection, schedule: Q04DX003 (ip), vehicle: Klucel (hydroxypropylcellulose) (HPC) 98 % of control | endpoint: mean survival time, dose: 400.0 mg/kg/injection, schedule: Q04DX003 (ip), vehicle: Klucel (hydroxypropylcellulose) (HPC) 110 % of control

CCCNC(=O)Nc1ccc(C)c(Cl)c1
inactive: [15] 100 % of control | [16] 108 % of control | [17] 96 % of control | [18] 101 % of control | [19] 100 % of control | [20] 95 % of control

Cc1cc(OC(=O)Nc2cccc(Cl)c2C)ccc1Cl
inactive: [15] 99 % of control | [16] 93 % of control | [17] 99 % of control | [18] 91 % of control | [19] 89 % of control | [20] 98 % of control

Nc1ncc(CNc2ccc(C(=O)O)cc2)c(N)n1
inactive: [4] 103 % of control | [5] 103 % of control

CCOC(=O)C1NC(=O)C(C(=O)OCC)C1C(C)C (configuration not stated)
inactive: [1] 102 % of control | endpoint: mean survival time, dose: 100.0 mg/kg/injection, schedule: Q01DX001 (ip), vehicle: Klucel (hydroxypropylcellulose) (HPC) 103 % of control | [2] 98 % of control | endpoint: mean survival time, dose: 200.0 mg/kg/injection, schedule: Q01DX001 (ip), vehicle: Klucel (hydroxypropylcellulose) (HPC) 103 % of control | [3] 100 % of control | endpoint: mean survival time, dose: 400.0 mg/kg/injection, schedule: Q01DX001 (ip), vehicle: Klucel (hydroxypropylcellulose) (HPC) 109 % of control

Cc1cc(N(CCCOS(C)(=O)=O)CCCOS(C)(=O)=O)ccc1C=Nc1ccc(-c2csc(COc3ccc(Br)cc3Br)n2)cc1
inactive: [15] 88 % of control | [17] 91 % of control | [19] 96 % of control

O=C(O)c1c(Cl)c(-c2c(Cl)c(C(=O)O)c(Cl)c([N+](=O)[O-])c2Cl)c(Cl)c([N+](=O)[O-])c1Cl
inactive: [15] 96 % of control | [17] 96 % of control | [19] 93 % of control

O=C(C(=O)c1cccc(CC(O)(C(F)(F)F)C(F)(F)F)n1)c1cccc(CC(O)(C(F)(F)F)C(F)(F)F)n1
inactive: [14] 91 % of control | [12] 95 % of control | endpoint: mean survival time, dose: 200.0 mg/kg/injection, schedule: Q01DX009 (ip), vehicle: Klucel (hydroxypropylcellulose) (HPC) 96 % of control | [13] 97 % of control | endpoint: mean survival time, dose: 400.0 mg/kg/injection, schedule: Q01DX009 (ip), vehicle: Klucel (hydroxypropylcellulose) (HPC) 93 % of control | endpoint: mean survival time, dose: 400.0 mg/kg/injection, schedule: Q04DX003 (ip), vehicle: saline 103 % of control

O=C(Nc1ccc(N=C(Nc2ccccc2)c2ccccc2)cc1)c1ccc(C(=O)Nc2ccc(N=C(Nc3ccccc3)c3ccccc3)cc2)cc1
inactive: endpoint: mean survival time, dose: 15.0 mg/kg/injection, schedule: Q01DX Z (ip), vehicle: carboxymethylcellulose (CMC) 93 % of control | endpoint: mean survival time, dose: 30.0 mg/kg/injection, schedule: Q01DX Z (ip), vehicle: carboxymethylcellulose (CMC) 93 % of control | endpoint: mean survival time, dose: 60.0 mg/kg/injection, schedule: Q01DX Z (ip), vehicle: carboxymethylcellulose (CMC) 97 % of control | endpoint: mean survival time, dose: 120.0 mg/kg/injection, schedule: Q01DX Z (ip), vehicle: carboxymethylcellulose (CMC) 95 % of control

N#CC(c1ccccc1)C(C/C(=N\O)c1ccccc1)c1ccccc1 (configuration not stated)
inactive: [9] 111 % of control | [10] 100 % of control | [11] 96 % of control

O=S(=O)(c1ccc(N=NN2CCCC2)cc1)N(CCCl)CCCl
inactive: [6] 101 % of control | [7] 101 % of control | [8] 108 % of control
